# Reference: ChEMBL document CHEMBL1157258, “Triterpenoids from Schisandra lancifolia with anti-HIV-1 activity” (J Nat Prod, 2006)
# Key:
# [1] = Cytotoxicity against human C8166 cells by MTT assay; type: cell-based
# [2] = tested on: Human immunodeficiency virus 1; assay: Antiviral activity against HIV1 infected in human C8166 cells assessed as inhibition of viral-induced cytopathic effect; type: functional, organism-based; conditions: Human immunodeficiency virus 1, C8166
EC50 [2],SMILES,CC50 [1]
16.6 µg/mL,C[C@@H]1CCC(=O)O[C@@H]2C[C@@]3(C)[C@@H]4[C@@H](O)C[C@H]5C(C)(C)C(=O)CC[C@@]56C[C@@]46C[C@@H](O)[C@]3(C)[C@@H]12 [LANCIFODILACTONE H],> 200 µg/mL
16.2 µg/mL,C/C(=C/CC[C@@H](C)[C@H]1CC[C@@]2(C)[C@@H]3CC[C@@H](C(C)(C)O)[C@@]4(CCC(=O)O)C[C@@]34CC[C@]12C)C(=O)O [LANCIFOICACID A],105 µg/mL
10.3 µg/mL,C=C(C)[C@@H]1CC[C@@H]2[C@]3(CC[C@]4(C)[C@@H]([C@H](C)CC/C=C(/C)C(=O)O)CC[C@@]24C)C[C@]13CCC(=O)O [NIGRANOIC ACID],88 µg/mL
–,Cc1cn([C@H]2C[C@H](N=[N+]=[N-])[C@@H](CO)O2)c(=O)[nH]c1=O [ZIDOVUDINE],> 200 µg/mL
